Assay results taken from ChEMBL document CHEMBL6109064, “Functional and structural polypharmacology of indazole-based privileged ligands to tackle the undruggability of membrane transporters” (Eur J Med Chem, 2025).

Key:
[1] = target: T1, Broad substrate specificity ATP-binding cassette transporter ABCG2 (Homo sapiens, UniProt Q9UNQ0); experiment: Inhibition of ABCG2 (unknown origin) expressed in dog MDCK-II-BCRP cells assessed as increase in pheophorbide A fluorescence intensity using pheophorbide as tracer preincubated for 30 mins followed by pheophorbide addition and measured for 180 mins by flow cytometry; format: cell-based
T1 sequence (Q9UNQ0 whole entry): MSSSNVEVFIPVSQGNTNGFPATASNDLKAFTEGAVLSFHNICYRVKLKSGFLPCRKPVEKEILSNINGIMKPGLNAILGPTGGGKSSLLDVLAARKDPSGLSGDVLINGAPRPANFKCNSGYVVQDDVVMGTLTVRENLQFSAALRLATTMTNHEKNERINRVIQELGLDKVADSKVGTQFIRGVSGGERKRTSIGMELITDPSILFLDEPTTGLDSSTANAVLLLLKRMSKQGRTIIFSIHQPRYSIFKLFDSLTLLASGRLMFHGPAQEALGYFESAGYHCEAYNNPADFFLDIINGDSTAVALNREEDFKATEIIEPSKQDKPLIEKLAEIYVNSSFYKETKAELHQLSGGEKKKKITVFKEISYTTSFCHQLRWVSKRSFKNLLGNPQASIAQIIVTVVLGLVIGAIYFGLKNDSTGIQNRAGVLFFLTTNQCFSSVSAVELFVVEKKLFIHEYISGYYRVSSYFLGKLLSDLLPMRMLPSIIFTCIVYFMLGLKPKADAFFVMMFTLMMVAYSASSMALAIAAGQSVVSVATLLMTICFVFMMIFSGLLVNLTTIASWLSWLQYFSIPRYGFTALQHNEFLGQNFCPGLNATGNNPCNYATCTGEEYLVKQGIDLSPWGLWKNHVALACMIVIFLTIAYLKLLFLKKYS

[2] = target: T2, Solute carrier family 22 member 2 (Homo sapiens, UniProt O15244); experiment: Inhibition of OCT2 (unknown origin) expressed in HEK293 cells assessed as inhibition of ASP+ uptake incubated for 5 mins by fluorescence based analysis; format: cell-based
T2 sequence (O15244 whole entry): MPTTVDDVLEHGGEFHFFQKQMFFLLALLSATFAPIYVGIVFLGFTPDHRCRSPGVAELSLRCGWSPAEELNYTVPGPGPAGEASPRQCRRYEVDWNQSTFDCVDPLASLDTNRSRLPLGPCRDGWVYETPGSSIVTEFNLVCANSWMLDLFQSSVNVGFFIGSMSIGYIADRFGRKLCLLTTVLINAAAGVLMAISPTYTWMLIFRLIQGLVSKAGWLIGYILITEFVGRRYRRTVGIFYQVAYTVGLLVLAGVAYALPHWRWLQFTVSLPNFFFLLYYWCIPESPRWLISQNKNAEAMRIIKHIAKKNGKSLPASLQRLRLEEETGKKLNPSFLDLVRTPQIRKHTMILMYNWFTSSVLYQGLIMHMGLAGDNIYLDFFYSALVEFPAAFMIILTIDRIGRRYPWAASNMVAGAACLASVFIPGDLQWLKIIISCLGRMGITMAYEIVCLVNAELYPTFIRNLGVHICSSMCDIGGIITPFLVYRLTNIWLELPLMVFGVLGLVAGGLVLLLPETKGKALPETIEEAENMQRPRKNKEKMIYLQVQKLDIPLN

A549 = experiment: Cytotoxicity against MCT1 expressing human A549 cells assessed as inhibition of cell growth incubated for 72 hrs by MTT assay; format: functional
[3] = target: T3, Monocarboxylate transporter 4 (Homo sapiens) (UniProt O15427); experiment: Reversal of MCT4-mediated multidrug resistance in human MDA-MB-231 cells assessed as fold increase in doxorubicin-mediated cytotoxicity incubated for 72 hrs in presence of doxorubicin by MTT assay relative to control; format: cell-based
T3 sequence (whole entry): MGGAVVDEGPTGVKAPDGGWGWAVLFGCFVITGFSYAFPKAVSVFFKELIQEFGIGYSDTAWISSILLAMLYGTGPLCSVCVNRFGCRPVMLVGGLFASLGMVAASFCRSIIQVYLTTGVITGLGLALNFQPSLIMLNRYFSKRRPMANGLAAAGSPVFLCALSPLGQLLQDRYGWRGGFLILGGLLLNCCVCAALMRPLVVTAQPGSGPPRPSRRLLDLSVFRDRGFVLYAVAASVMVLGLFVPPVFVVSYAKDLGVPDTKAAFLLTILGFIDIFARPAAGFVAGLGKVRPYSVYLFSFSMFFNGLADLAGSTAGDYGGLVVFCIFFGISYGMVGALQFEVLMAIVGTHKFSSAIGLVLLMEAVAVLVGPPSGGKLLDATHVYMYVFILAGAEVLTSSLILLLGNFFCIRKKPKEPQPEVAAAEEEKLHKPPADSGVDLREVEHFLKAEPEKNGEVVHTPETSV

MDA-MB-231 = experiment: Cytotoxicity against human MDA-MB-231 cells assessed as inhibition of cell growth by MTT assay; format: functional
[4] = target: T4, Monocarboxylate transporter 1 (Homo sapiens, UniProt P53985); experiment: Inhibition of MCT-1 in human A549 cells assessed as potentiation of 3-BP-mediated cytotoxicity by measuring decrease in cell viability incubated for 72 hrs in presence of 3-BP by MTT assay; format: cell-based
T4 sequence (P53985 whole entry): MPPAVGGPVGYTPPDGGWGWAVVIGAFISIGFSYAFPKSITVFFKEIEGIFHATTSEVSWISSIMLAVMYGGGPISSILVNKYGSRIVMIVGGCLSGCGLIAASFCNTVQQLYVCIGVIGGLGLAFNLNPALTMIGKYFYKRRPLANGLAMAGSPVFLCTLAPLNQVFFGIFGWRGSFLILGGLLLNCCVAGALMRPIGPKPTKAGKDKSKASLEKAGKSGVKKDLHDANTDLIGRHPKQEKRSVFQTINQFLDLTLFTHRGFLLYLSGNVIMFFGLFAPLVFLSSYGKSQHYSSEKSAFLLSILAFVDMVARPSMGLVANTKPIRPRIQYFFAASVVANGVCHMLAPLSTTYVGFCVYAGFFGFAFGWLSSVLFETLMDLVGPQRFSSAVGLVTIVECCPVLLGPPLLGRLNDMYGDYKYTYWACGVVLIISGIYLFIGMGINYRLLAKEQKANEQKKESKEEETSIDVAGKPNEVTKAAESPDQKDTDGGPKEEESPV

MCF7 = experiment: Cytotoxicity against MCT1 expressing human MCF7 cells assessed as inhibition of cell growth incubated for 72 hrs by MTT assay; format: functional
[5] = target: T1, Broad substrate specificity ATP-binding cassette transporter ABCG2; experiment: Ratio of IC50 for inhibition of ABCG2 (unknown origin) expressed in dog MDCK-II-BCRP cells using pheophorbide as tracer to EC50 for reversal of ABCG2 (unknown origin)-mediated multidrug resistance transfected in dog MDCK-II-BCRP cells in presence of SN-38; format: cell-based
[6] = target: T1, Broad substrate specificity ATP-binding cassette transporter ABCG2; experiment: Ratio of IC50 for inhibition of ABCG2 (unknown origin) expressed in dog MDCK-II-BCRP cells using Hoechst 33342 as tracer to EC50 for reversal of ABCG2 (unknown origin)-mediated multidrug resistance transfected in dog MDCK-II-BCRP cells in presence of SN-38; format: cell-based
[7] = target: T1, Broad substrate specificity ATP-binding cassette transporter ABCG2; experiment: Reversal of ABCG2 (unknown origin)-mediated multidrug resistance transfected in dog MDCK-II-BCRP cells assessed as increase in SN-38-mediated cytotoxicity incubated for 72 hrs in presence of SN-38 by MTT assay; format: cell-based

`O=C(Cn1nc(C(=O)Nc2ccccn2)c2ccccc21)Nc1cc(Cl)ccc1Cl` showed an IC50 [1] of 1.17 µM, an IC50 [2] of 50.3 µM and a GI50 (A549) of 37.1 µM. For the same molecule, the fold change (FC) [3] was 3.52 and the GI50 (MDA-MB-231) was 29.9 µM.
For `COc1cccc(NC(=O)c2nn(CC(=O)Nc3ccccc3OC)c3ccccc23)c1`, the IC50 [4] was “Not_active”, the IC50 [1] was 1.66 µM and the IC50 [2] was 11.8 µM.
`O=C(Cn1nc(C(=O)Nc2cccnc2)c2ccccc21)Nc1ccc(Cl)cc1` showed an IC50 [1] of 14.2 µM, an IC50 [2] of 60.1 µM and a GI50 (A549) of 28.6 µM. For the same molecule, the GI50 (MCF7) was 10.8 µM, the “Ratio IC50/EC50” value [5] was > 13 and the “Ratio IC50/EC50” value [6] was > 5. For the same molecule, the fold change (FC) [3] was 3.85 and the GI50 (MDA-MB-231) was 30 µM.
`COc1cccc(NC(=O)Cn2nc(C(=O)Nc3cccc(OC)c3)c3ccccc32)c1` was tested, and the IC50 [4] was “Not_active”, the IC50 [1] was 1.33 µM and the IC50 [2] was 20.8 µM. For the same molecule, the EC50 [7] was “Not_active”.
